# Assays:
# MDA-MB-231 = experiment: Cytotoxicity against human MDA-MB-231 cells assessed as reduction in cell viability after 48 hrs by MTT assay; assay type: functional, cell-based; settings: MDA-MB-231, 48 h
# HaCaT = experiment: Cytotoxicity against human HaCaT cells assessed as reduction in cell viability after 48 hrs by MTT assay; assay type: cell-based
# A549 = experiment: Cytotoxicity against human A549 cells assessed as reduction in cell viability after 48 hrs by MTT assay; assay type: functional, cell-based; settings: A549, 48 h
# HepG2 = experiment: Cytotoxicity against human HepG2 cells assessed as reduction in cell viability after 48 hrs by MTT assay; assay type: functional, cell-based; settings: HepG2, 48 h
# [1] = Cytotoxicity against human […] cells assessed as reduction in cell viability after 48 hrs by MTT assay; assay type: functional, cell-based
# HeLa = experiment: Cytotoxicity against human HeLa cells assessed as reduction in cell viability after 48 hrs by MTT assay; assay type: functional, cell-based
structure (smiles),measurement,setting,value
O=Cc1c(O)ccc2oc(-c3ccccc3[N+](=O)[O-])nc12,IC50,MDA-MB-231,9.18 µM
same,IC50,HaCaT,20 µM
same,IC50,A549,7.03 µM
same,IC50,HepG2,17.4 µM
same,IC50,[1],18.4 µM
same,IC50,HeLa,14.5 µM
COc1ccccc1-c1nc2c(C=O)c(O)ccc2o1,IC50,MDA-MB-231,5.95 µM
same,IC50,HaCaT,8.38 µM
same,IC50,A549,2.8 µM
same,IC50,HepG2,10.8 µM
same,IC50,[1],10.4 µM
same,IC50,HeLa,8.08 µM
Cc1ccccc1-c1nc2c(C=O)c(O)ccc2o1,IC50,MDA-MB-231,5.36 µM
same,IC50,HaCaT,12.2 µM
same,IC50,A549,2.21 µM
same,IC50,HepG2,4.74 µM
same,IC50,[1],9.73 µM
same,IC50,HeLa,15.4 µM
COc1cc(OC)cc(-c2nc3c(C=O)c(O)ccc3o2)c1,IC50,MDA-MB-231,34.1 µM
same,IC50,HaCaT,17.6 µM
same,IC50,A549,30.3 µM
same,IC50,HepG2,21.4 µM
same,IC50,[1],30.5 µM
same,IC50,HeLa,25.3 µM
CC(=O)c1c(O)ccc2oc(-c3ccccc3)nc12,IC50,MDA-MB-231,> 30 µM
same,IC50,HaCaT,> 30 µM
same,IC50,A549,> 30 µM
same,IC50,HepG2,> 30 µM
same,IC50,[1],> 30 µM
same,IC50,HeLa,> 30 µM

# Reference: ChEMBL document CHEMBL4325881, “Facile synthesis of 2-aryl 5-hydroxy benzo[d]oxazoles and their in vitro anti-proliferative effects on various cancer cell lines” (Bioorg Med Chem Lett, 2018)
